This is an account of results in patent US4918070A, “Cephalosporin derivatives and antibacterial agents” (Banyu Pharmaceutical Co., Ltd., priority 1987, dated 1990).

Holding throughout (assay): in vitro antibacterial activity, agar plate dilution method (MIC)
Type in all cases: cell-based

In one test the test system is E. cloacae 963. The note with it: E. cloacae 963; 10^6 CFU/ml, MH agar, 37° C., 16 hours. The protocol:
(§1) One platinum loopfull of each test microorganism incubated overnight in Mueller Hinton broth, was inoculated to Mueller Hinton agar (inoculum size: 10^6 CFU/ml). Such culture media containing various antibiotics in various concentrations were prepared. After incubation at 37° C. for 16 hours, the minimum inhibitory concentrations (MIC: μg/ml) were measured.

The subject of a further test is K. pneumoniae PCI-602. The note with it: K. pneumoniae PCI-602; 10^6 CFU/ml, MH agar, 37° C., 16 hours. The protocol:
as §1

The next test concerns P. vulgaris HX-19. The following applies: P. vulgaris HX-19; 10^6 CFU/ml, MH agar, 37° C., 16 hours. The method, then:
as §1

For the next test, the system named is S. marcescens IAM 1184. The following applies: S. marcescens IAM 1184; 10^6 CFU/ml, MH agar, 37° C., 16 hours. The method, then:
as §1

A further test relates to S. aureus 209P NIHJ-JCl. The note with it: S. aureus 209P NIHJ-JCl; 10^6 CFU/ml, MH agar, 37° C., 16 hours. The method, then: as §1
In another test the test system is E. coli NIHJ JC2. The following applies: E. coli NIHJ JC2; 10^6 CFU/ml, MH agar, 37° C., 16 hours. The protocol: as §1

As for `CO/N=C(\C(=O)N[C@@H]1C(=O)N2C(C(=O)[O-])=C(c3csnn3)CS[C@H]12)c1csc(N)n1.[Na+]` [Example 18, Sodium 7δ-[2-(2-aminothiazol-4-yl)-(Z)-2-methoxyiminoacetamido]-3-(1,2,3-thiadiazol-4-yl)-3-cephem-4-carboxylate], the “Minimum Inhibitory Concentration (MIC)” value in the test with E. cloacae 963 was 0.390 µg/mL; in the test with K. pneumoniae PCI-602, 0.0125 µg/mL; with P. vulgaris HX-19, 0.100 µg/mL; with S. marcescens IAM 1184, 0.390 µg/mL; in the test with S. aureus 209P NIHJ-JCl, 3.12 µg/mL; with E. coli NIHJ JC2, 0.390 µg/mL.
